Data: paper PMC3304000 (Bioorganic & medicinal chemistry, 2012)
Values after ≈ are worked out from the molar mass of the structure shown. Values joined by “and” are separate entries in the source; they are usually repeats but may differ in a detail not shown here. Identical values can stand only once.

What was measured:
[1] = system: Drug sensitive Mtb clinical strain #1; experiment: MIC against clinical Mtb strain in 7H9/glucose/glycerol/BSA/0.05% Tween 80; type: cell-based; details: Mycobacterium tuberculosis
[2] = system: Mtb H37Rv luxAB luminescence strain; experiment: microbe, parasite or virus in culture; type: cell-based; details: Mycobacterium tuberculosis, read-out: LORA MIC (mean ± SD)
[3] = system: twelve MDR- and XDR-Mtb strains; details: cited from earlier work
[4] = Stability in simulated gastric fluid; details: after a 15-min incubation
[5] = system: Drug sensitive Mtb clinical strain #2; experiment: MIC against clinical Mtb strain in 7H9/glucose/glycerol/BSA/0.05% Tween 80; type: cell-based; details: Mycobacterium tuberculosis
[6] = In vitro stability in rat liver microsomes; details: after a 15-min incubation

| Compound | MIC [1] | compound remaining in simulated gastric fluid [4] [%] | also measured |
| --- | --- | --- | --- |
| O=C(OCc1ccccc1)c1csc(-c2ccccc2)n1 [Compound 5] | 10 µg/mL (≈ 33.9 µM) |  |  |
| Cc1ccn2c(C(=O)OCc3ccccc3)c(-c3ccccc3)nc2c1 [Compound 9, benzyl 7-methyl-2-phenylimidazo[1,2-a]pyridine-3-carboxylate] |  |  | MIC [2]: 22 µM (≈ 7.53 µg/mL) |
| Cc1ccn2c(C(=O)OCc3ccccc3)c(C)nc2c1 [Compound 11, benzyl 2,7-dimethylimidazo[1,2-a]pyridine-3-carboxylate] | < 0.01 µg/mL |  |  |
| Cc1ccn2c(C(=O)NCc3ccccc3)c(C)nc2c1 [Compound 12, N-benzyl-2,7-dimethylimidazo[1,2-a]pyridine-3-carboxamide] |  | 100 | MIC against a panel of twelve MDR- and XDR-Mtb strains [3]: 0.07 to 2.3 µM |
| O=[N+]([O-])c1cn2c(n1)OC[C@@H](OCc1ccc(OC(F)(F)F)cc1)C2 [PA-824, reference compound] | 0.45 µM to 0.86 µM and 0.16 µg/mL to 0.31 µg/mL |  |  |
| O=C(OCc1ccccc1)c1coc(-c2ccccc2)n1 [Compound 2] | 4.4 µM to 8.9 µM and 1.25 µg/mL to 2.5 µg/mL | 0.6 | MIC [5]: 2.2 to 4.4 µM (≈ 0.614 to 1.23 µg/mL); compound remaining in rat liver microsomes [6]: 11% |
